# Source: US8076338B2, “Kinase modulators and methods of use” (Exelixis, Inc., priority 2004, dated 2011)
# Experiments:
# [1] = target: AktK (Homo sapiens, UniProt P31749); test: Luciferase-coupled chemiluminescence kinase assay (ATP consumption); format: biochemical; conditions: Table 1; class symbols per key; read-out: AKT-1 IC50
# Experimental: (§1) One measure of inhibition is Ki. […] The Ki for a compound is determined from the IC50 based on three assumptions. First, only one compound molecule binds to the enzyme and there is no cooperativity. […] Third, the enzymatic rate of the enzyme-inhibitor complex is zero. The rate data (i.e. compound concentration) are fitted to the equation: […]
# (§2) Luciferase-Coupled Chemiluminescence Assay Protocol
# (§3) Kinase activity is measured as the percent of ATP consumed following the kinase reaction using luciferase-luciferin-coupled chemiluminescence. Reactions were conducted in 384-well white, medium binding microtiter plates (Greiner). Kinase reactions were initiated by combining test compounds, ATP and kinase in a 20 uL volume. The reaction mixture was incubated at ambient temperature for 3 hrs. For p70S6K and/or AktK, 2.5-5 nM of the enzyme was pre-incubated with compound in 20 mM Tris pH 7.5, 10 mM MgCl2, 0.03% TX-100, and 1 mM DTT for 30 minutes at room temperature. Following the kinase reaction, a 20 μL aliquot of luciferase-luciferin mix was added and the chemiluminescence signal measured using a Victor^2 plate reader (Perkin Elmer). The luciferase-luciferin mix contained 50 mM HEPES, pH 7.8, 67 mM oxalic acid (pH 7.8), 5 (or 50) mM DTT, 0.4% Triton X-100, 0.25 mg/mL coenzyme A, 63 μM AMP, 28 μg/1 mL luciferin and 40,000 units/mL luciferase. Total ATP consumption was limited to 25-60% and the IC50 values correlate well with those determined by radiometric assays.
# [2] = target: p70S6K (Homo sapiens, UniProt P23443); test: as above; format: biochemical; conditions: Table 1; class symbols per key
# Chain of p70S6K (P23443 whole entry): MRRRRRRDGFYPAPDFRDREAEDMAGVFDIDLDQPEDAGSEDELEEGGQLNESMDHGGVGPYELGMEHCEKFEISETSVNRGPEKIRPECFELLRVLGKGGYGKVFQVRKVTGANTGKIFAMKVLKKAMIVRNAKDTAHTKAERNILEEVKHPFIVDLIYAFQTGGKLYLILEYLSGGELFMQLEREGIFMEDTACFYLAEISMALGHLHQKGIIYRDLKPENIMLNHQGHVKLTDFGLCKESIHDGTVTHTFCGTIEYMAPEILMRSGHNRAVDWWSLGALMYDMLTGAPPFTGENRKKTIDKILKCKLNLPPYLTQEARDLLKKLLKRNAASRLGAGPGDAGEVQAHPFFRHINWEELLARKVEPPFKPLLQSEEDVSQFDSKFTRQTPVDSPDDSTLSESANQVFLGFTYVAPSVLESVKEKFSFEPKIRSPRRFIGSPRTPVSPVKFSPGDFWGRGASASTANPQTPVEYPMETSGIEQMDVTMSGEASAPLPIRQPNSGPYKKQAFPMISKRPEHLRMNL
# Experimental: as §1, §2, §3
# Chain of AktK (P31749 whole entry): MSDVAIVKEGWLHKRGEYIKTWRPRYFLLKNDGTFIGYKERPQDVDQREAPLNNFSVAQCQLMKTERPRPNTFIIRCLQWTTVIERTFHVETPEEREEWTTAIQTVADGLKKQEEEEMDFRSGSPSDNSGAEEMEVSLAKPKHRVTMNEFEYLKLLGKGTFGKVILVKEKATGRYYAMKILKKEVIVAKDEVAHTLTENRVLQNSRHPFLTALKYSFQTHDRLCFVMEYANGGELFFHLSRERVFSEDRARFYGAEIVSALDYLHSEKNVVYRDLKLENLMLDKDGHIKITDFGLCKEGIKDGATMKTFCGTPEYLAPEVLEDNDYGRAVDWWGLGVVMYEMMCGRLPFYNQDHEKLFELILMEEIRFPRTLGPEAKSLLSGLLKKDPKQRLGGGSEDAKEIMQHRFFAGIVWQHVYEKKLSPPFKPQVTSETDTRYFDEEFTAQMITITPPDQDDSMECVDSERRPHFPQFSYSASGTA
IC50 [1] [nM],IC50 [2] [nM],Structure (SMILES)
1000 to 10000,< 100,"COc1cc(OC)cc(N2CCN(c3ncnc4[nH]nc(Br)c34)CC2)c1 [Entry 80, 4-{4-[3,5-bis(methyloxy)phenyl]piperazin-1-yl}-3-bromo-1H-pyrazolo[3,4-d]pyrimidine]"
100 to 1000,< 100,"CCN1CCN(CCOc2cc(Cl)cc(N3CCN(c4ncnc5[nH]nc(C(F)(F)F)c45)CC3)c2C)CC1 [Entry 81, 4-[4-(5-chloro-3-{[2-(4-ethylpiperazin-1-yl)ethyl]oxy}-2-methylphenyl)piperazin-1-yl]-3-(trifluoromethyl)-1H-pyrazolo[3,4-d]pyrimidine]"
1000 to 10000,< 100,"CCc1n[nH]c2ncnc(N3CCN(c4cc(Cl)cc(N(C)CCN(C)C)c4C)CC3)c12 [Entry 82, N-{5-chloro-3-[4-(3-ethyl-1H-pyrazolo[3,4-d]pyrimidin-4-yl)piperazin-1-yl]-2-methylphenyl}-N,N′,N′-trimethylethane-1,2-diamine]"
< 100,< 100,"CCN(CC)CCCOc1cc(Cl)cc(N2CCN(c3ncnc4[nH]nc(Br)c34)CC2)c1C [Entry 83, 3-({3-[4-(3-bromo-1H-pyrazolo[3,4-d]pyrimidin-4-yl)piperazin-1-yl]-5-chloro-2-methylphenyl}oxy)-N,N-diethylpropan-1-amine]"
< 100,< 100,"Cc1c(OCCCN2CCCC2)cc(Cl)cc1N1CCN(c2ncnc3[nH]nc(Br)c23)CC1 [Entry 84, 3-bromo-4-(4-{5-chloro-2-methyl-3-[(3-pyrrolidin-1-ylpropyl)oxy]phenyl}piperazin-1-yl)-1H-pyrazolo[3,4-d]pyrimidine]"
< 100,< 100,"Cc1c(OCCCN2CCN(C)CC2)cc(Cl)cc1N1CCN(c2ncnc3[nH]nc(Br)c23)CC1 [Entry 85, 3-bromo-4-[4-(5-chloro-2-methyl-3-{[3-(4-methylpiperazin-1-yl)propyl]oxy}phenyl)piperazin-1-yl]-1H-pyrazolo[3,4-d]pyrimidine]"
< 100,< 100,"CCN1CCN(CCCOc2cc(Cl)cc(N3CCN(c4ncnc5[nH]nc(Br)c45)CC3)c2C)CC1 [Entry 86, 3-bromo-4-[4-(5-chloro-3-{[3-(4-ethylpiperazin-1-yl)propyl]oxy}-2-methylphenyl)piperazin-1-yl]-1H-pyrazolo[3,4-d]pyrimidine]"
100 to 1000,< 100,"CCN(CC)CCCc1cc(Cl)cc(N2CCN(c3ncnc4[nH]nc(C(F)(F)F)c34)CC2)c1C [Entry 87, 3-(5-chloro-2-methyl-3-{4-[3-(trifluoromethyl)-1H-pyrazolo[3,4-d]pyrimidin-4-yl]piperazin-1-yl}phenyl)-N,N-diethylpropan-1-amine]"
< 100,< 100,"Cc1c(OCC2CCN(C)CC2)cc(Cl)cc1N1CCN(c2ncnc3[nH]nc(Br)c23)CC1 [Entry 88, 3-bromo-4-[4-(5-chloro-2-methyl-3-{[(1-methyl-piperidin-4-yl)methyl]oxy}phenyl)piperazin-1-yl]-1H-pyrazolo[3,4-d]pyrimidine]"
< 100,< 100,"Cc1c(OCCC2CCN(C)CC2)cc(Cl)cc1N1CCN(c2ncnc3[nH]nc(Br)c23)CC1 [Entry 89, 3-bromo-4-[4-(5-chloro-2-methyl-3-{[2-(1-methyl-piperidin-4-yl)ethyl]oxy}phenyl)piperazin-1-yl]-1H-pyrazolo[3,4-d]pyrimidine]"
100 to 1000,< 100,"Cc1c(OCC2CCN(C)CC2)cc(Cl)cc1N1CCN(c2ncnc3[nH]nc(C(F)(F)F)c23)CC1 [Entry 90, 4-[4-(5-chloro-2-methyl-3-{[(1-methylpiperidin-4-yl)methyl]oxy}phenyl)piperazin-1-yl]-3-(trifluoro-methyl)-1H-pyrazolo[3,4-d]pyrimidine]"
100 to 1000,< 100,"Cc1c(OCCC2CCN(C)CC2)cc(Cl)cc1N1CCN(c2ncnc3[nH]nc(C(F)(F)F)c23)CC1 [Entry 91, 4-[4-(5-chloro-2-methyl-3-{[2-(1-methylpiperidin-4-yl)ethyl]oxy}phenyl)piperazin-1-yl]-3-(tri-fluoromethyl)-1H-pyrazolo[3,4-d]pyrimidine]"

# Second part, the compound before the results:
Structure (SMILES),IC50 [1] [nM],IC50 [2] [nM]
"Cc1c(OCCCN2CCN(C)CC2)cc(Cl)cc1N1CCN(c2ncnc3[nH]nc(C(F)(F)F)c23)CC1 [Entry 70, 4-[4-(5-chloro-2-methyl-3-{[3-(4-methylpiperazin-1-yl)propyl]oxy}phenyl)piperazin-1-yl]-3-(trifluoromethyl)-1H-pyrazolo[3,4-d]pyrimidine]",100 to 1000,< 100
"CCN1CCN(CCCOc2cc(Cl)cc(N3CCN(c4ncnc5[nH]nc(C(F)(F)F)c45)CC3)c2C)CC1 [Entry 71, 4-[4-(5-chloro-3-{[3-(4-ethylpiperazin-1-yl)propyl]oxy}-2-methylphenyl)piperazin-1-yl]-3-(trifluoromethyl)-1H-pyrazolo[3,4-d]pyrimidine]",100 to 1000,< 100
"Cc1c(OCCN2CCN(C)CC2)cc(Cl)cc1N1CCN(c2ncnc3[nH]nc(Br)c23)CC1 [Entry 72, 3-bromo-4-[4-(5-chloro-2-methyl-3-{[2-(4-methylpiperazin-1-yl)ethyl]oxy}phenyl)piperazin-1-yl]-1H-pyrazolo[3,4-d]pyrimidine]",100 to 1000,< 100
"Cc1c(OCCN2CCN(C)CC2)cc(Cl)cc1N1CCN(c2ncnc3[nH]nc(C(F)(F)F)c23)CC1 [Entry 73, 4-[4-(5-chloro-2-methyl-3-{[2-(4-methylpiperazin-1-yl)ethyl]oxy}phenyl)piperazin-1-yl]-3-(trifluoromethyl)-1H-pyrazolo[3,4-d]pyrimidine]",100 to 1000,< 100
"CCN1CCN(CCOc2cc(Cl)cc(N3CCN(c4ncnc5[nH]nc(Br)c45)CC3)c2C)CC1 [Entry 74, 3-bromo-4-[4-(5-chloro-3-{[2-(4-ethylpiperazin-1-yl)ethyl]oxy}-2-methylphenyl)piperazin-1-yl]-1H-pyrazolo[3,4-d]pyrimidine]",< 100,< 100
"Clc1ccc(N2CCN(c3ncnc4[nH]nc(Br)c34)CC2)cc1Cl [Entry 75, 3-bromo-4-[4-(3,4-dichlorophenyl)piperazin-1-yl]-1H-pyrazolo[3,4-d]pyrimidine]",≥ 10000,100 to 1000
"Fc1ccc(N2CCN(c3ncnc4[nH]nc(Br)c34)CC2)cc1F [Entry 76, 3-bromo-4-[4-(3,4-difluorophenyl)piperazin-1-yl]-1H-pyrazolo[3,4-d]pyrimidine]",≥ 10000,100 to 1000
"Clc1ccc(N2CCN(c3ncnc4[nH]nc(Br)c34)CC2)c(Cl)c1 [Entry 77, 3-bromo-4-[4-(2,4-dichlorophenyl)piperazin-1-yl]-1H-pyrazolo[3,4-d]pyrimidine]",≥ 10000,100 to 1000
"CCc1n[nH]c2ncnc(N3CCN(c4cc(F)cc(NCCN5CCCC5)c4C)CC3)c12 [Entry 78, 3-[4-(3-ethyl-1H-pyrazolo[3,4-d]pyrimidin-4-yl)piperazin-1-yl]-5-fluoro-2-methyl-N-(2-pyrrolidin-1-ylethyl)aniline]",1000 to 10000,< 100
"Cc1c(NCCN2CCCC2)cc(F)cc1N1CCN(c2ncnc3[nH]nc(C(F)(F)F)c23)CC1 [Entry 79, 5-fluoro-2-methyl-N-(2-pyrrolidin-1-ylethyl)-3-{4-[3-(trifluoromethyl)-1H-pyrazolo[3,4-d]pyrimidin-4-yl]piperazin-1-yl}aniline]",100 to 1000,< 100
